{
  "source": "patent US7705052B2",
  "about": "“Sulfonamide derivatives for the treatment of diabetes” (Merck Serono SA, priority 2003, dated 2010)",
  "test_system": "db/db mice",
  "assay": "In vivo assay in db/db mice (model of postprandial glycemia)",
  "settings": "db/db mice fasted 20 hours, 50 mg/kg p.o., 4 hrs after drug administration, compared to vehicle-treated animals (Group 1)",
  "experimental": "In Vivo Assay in db/db Mice\nThe following assay aims at determining the anti-diabetic effect of the test compounds of formula (I) in a model of postprandial glycemia in db/db mice, in vivo.\nThe assay was performed as follows:\nA total of 18 db/db mice (about 8-9 weeks; obtained from IFFACREDO, l'Arbreste, France) were fasted during 20 hours.\n3 groups, each consisting of 6 animals were formed: • Group 1: The animals were administered (per os) a dose of 10 mg/kg of vehicle. • Group 2: The animals were administered (per os) a dose of 30 mg/kg of the test compound according to formula (I). • Group 3: The animals were administered (per os) a dose of 50 mg/kg of the test compound according to formula (I).\nAfter oral administration of the compounds of formula (I) solubilized or suspended in CarboxyMethylCellulose (0.5%), Tween 20 (0.25%) and water as vehicle, the animals had access to commercial food (D04, UAR, Villemoisson/Orge, France) ad libitum. The diabetic state of the mice was verified by determining the blood glucose level before drug administration. Blood glucose and serum insulin levels were then determined 4 hrs after drug administration. […]\nChanges in blood glucose and serum insulin of drug treated mice were expressed as a percentage of control (group 1: vehicle treated mice).",
  "data": [
    {"smiles": "CCCCNC1CCN(S(=O)(=O)c2ccc(CNC(=O)c3ccc(Cl)cc3)s2)CC1", "note": "[4-chloro N-[(5-{[(butylamino)piperidin-1-yl]sulfonyl}thien-2-yl)methyl]benzamide]", "values": [
      {"measurement": "decrease in the (serum/blood) insulin level", "setting": "ELISA", "result": 61, "unit": "%"},
      {"measurement": "decrease in blood glucose level induced by food intake", "result": 42, "unit": "%"}
    ]}
  ]
}
